From ChEMBL document CHEMBL6109125, “A New Protractor Potentiates Glucagon-Like Peptide 1 with Slow-Release Depot and Long-Term Action” (J Med Chem, 2025)

What was measured:
Type in all cases: functional, cell-based
[1] = target: T1, Glucagon-like peptide 1 receptor (Homo sapiens, UniProt P43220); assay: Agonist activity at GLP-1R (unknown origin) expressed in HEK293 cells co-expressing CRE-Luc assessed as increase in intracellular cAMP accumulation by luciferase based assay
[2] = target: T1, Glucagon-like peptide 1 receptor; assay: Agonist activity at GLP-1R (unknown origin) expressed in HEK293 cells co-expressing CRE-Luc assessed as increase in intracellular cAMP accumulation in presence of 2% HSA by luciferase based assay
[3] = target: T1, Glucagon-like peptide 1 receptor; assay: Agonist activity at GLP-1R (unknown origin) expressed in HEK293 cells co-expressing CRE-Luc assessed as increase in intracellular cAMP accumulation in presence of 10% FBS by luciferase based assay

T1 sequence (P43220 whole entry): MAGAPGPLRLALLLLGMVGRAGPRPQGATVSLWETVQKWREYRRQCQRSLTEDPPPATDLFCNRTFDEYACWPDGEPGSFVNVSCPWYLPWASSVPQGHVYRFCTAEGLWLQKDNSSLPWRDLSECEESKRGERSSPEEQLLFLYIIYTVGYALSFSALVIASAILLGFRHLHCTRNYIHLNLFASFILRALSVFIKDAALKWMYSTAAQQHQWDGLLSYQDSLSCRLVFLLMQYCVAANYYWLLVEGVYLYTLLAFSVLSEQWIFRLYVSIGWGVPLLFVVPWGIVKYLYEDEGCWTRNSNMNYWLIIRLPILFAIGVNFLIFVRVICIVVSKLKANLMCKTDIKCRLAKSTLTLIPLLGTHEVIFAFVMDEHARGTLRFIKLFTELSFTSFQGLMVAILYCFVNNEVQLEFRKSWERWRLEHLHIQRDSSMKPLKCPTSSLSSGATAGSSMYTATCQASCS

`CCOc1ccc(Nc2ccc(/C(=C3C=C/C(=[N+](\CC)Cc4cccc(S(=O)(=O)[O-])c4)C=C/3C)c3ccc(N(CC)Cc4cccc(S(=O)(=O)NCCCCCC(=O)N[C@@H](CCC(=O)NCCOCCOCC(=O)NCCCC[C@H](NC(=O)[C@H](C)NC(=O)[C@H](C)NC(=O)[C@H](CCC(N)=O)NC(=O)CNC(=O)[C@H](CCC(=O)O)NC(=O)[C@H](CC(C)C)NC(=O)[C@H](Cc5ccc(O)cc5)NC(=O)[C@H](CO)NC(=O)[C@H](CO)NC(=O)[C@@H](NC(=O)[C@H](CC(=O)O)NC(=O)[C@H](CO)NC(=O)[C@@H](NC(=O)[C@H](Cc5ccccc5)NC(=O)[C@@H](NC(=O)CNC(=O)[C@H](CCC(=O)O)NC(=O)C(C)(C)NC(=O)[C@@H](N)Cc5c[nH]cn5)[C@@H](C)O)[C@@H](C)O)C(C)C)C(=O)N[C@@H](CCC(=O)O)C(=O)N[C@@H](Cc5ccccc5)C(=O)N[C@H](C(=O)N[C@@H](C)C(=O)N[C@@H](Cc5c[nH]c6ccccc56)C(=O)N[C@@H](CC(C)C)C(=O)N[C@H](C(=O)N[C@@H](CCCNC(=N)N)C(=O)NCC(=O)N[C@@H](CCCNC(=N)N)C(=O)NCC(=O)O)C(C)C)[C@@H](C)CC)C(=O)O)c4)cc3C)cc2)cc1` showed an EC50 ([1]; read-out: EC50) of 0.63 pM and an EC50 ([2]; read-out: EC50) of 3.29 pM.
In the case of `CCOc1ccc(Nc2ccc(/C(=C3C=C/C(=[N+](\CC)Cc4cccc(S(=O)(=O)[O-])c4)C=C/3C)c3ccc(N(CC)Cc4cccc(S(=O)(=O)NCCCCCC(=O)N[C@@H](CCC(=O)NCCCC[C@H](NC(=O)[C@H](C)NC(=O)[C@H](C)NC(=O)[C@H](CCC(N)=O)NC(=O)CNC(=O)[C@H](CCC(=O)O)NC(=O)[C@H](CC(C)C)NC(=O)[C@H](Cc5ccc(O)cc5)NC(=O)[C@H](CO)NC(=O)[C@H](CO)NC(=O)[C@@H](NC(=O)[C@H](CC(=O)O)NC(=O)[C@H](CO)NC(=O)[C@@H](NC(=O)[C@H](Cc5ccccc5)NC(=O)[C@@H](NC(=O)CNC(=O)[C@H](CCC(=O)O)NC(=O)C(C)(C)NC(=O)[C@@H](N)Cc5c[nH]cn5)[C@@H](C)O)[C@@H](C)O)C(C)C)C(=O)N[C@@H](CCC(=O)O)C(=O)N[C@@H](Cc5ccccc5)C(=O)N[C@H](C(=O)N[C@@H](C)C(=O)N[C@@H](Cc5c[nH]c6ccccc56)C(=O)N[C@@H](CC(C)C)C(=O)N[C@H](C(=O)N[C@@H](CCCNC(=N)N)C(=O)NCC(=O)N[C@@H](CCCNC(=N)N)C(=O)NCC(=O)O)C(C)C)[C@@H](C)CC)C(=O)O)c4)cc3C)cc2)cc1`, the EC50 ([1]; read-out: EC50) is reported as 1.17 pM, the EC50 ([2]; read-out: EC50) is reported as 9.1 pM and the EC50 ([3]; read-out: EC50) is reported as 2.92 pM.
`CCOc1ccc(Nc2ccc(/C(=C3C=C/C(=[N+](\CC)Cc4cccc(S(=O)(=O)[O-])c4)C=C/3C)c3ccc(N(CC)Cc4cccc(S(=O)(=O)NCCCCCC(=O)NCCOCCOCC(=O)NCCCC[C@H](NC(=O)[C@H](C)NC(=O)[C@H](C)NC(=O)[C@H](CCC(N)=O)NC(=O)CNC(=O)[C@H](CCC(=O)O)NC(=O)[C@H](CC(C)C)NC(=O)[C@H](Cc5ccc(O)cc5)NC(=O)[C@H](CO)NC(=O)[C@H](CO)NC(=O)[C@@H](NC(=O)[C@H](CC(=O)O)NC(=O)[C@H](CO)NC(=O)[C@@H](NC(=O)[C@H](Cc5ccccc5)NC(=O)[C@@H](NC(=O)CNC(=O)[C@H](CCC(=O)O)NC(=O)C(C)(C)NC(=O)[C@@H](N)Cc5c[nH]cn5)[C@@H](C)O)[C@@H](C)O)C(C)C)C(=O)N[C@@H](CCC(=O)O)C(=O)N[C@@H](Cc5ccccc5)C(=O)N[C@H](C(=O)N[C@@H](C)C(=O)N[C@@H](Cc5c[nH]c6ccccc56)C(=O)N[C@@H](CC(C)C)C(=O)N[C@H](C(=O)N[C@@H](CCCNC(=N)N)C(=O)NCC(=O)N[C@@H](CCCNC(=N)N)C(=O)NCC(=O)O)C(C)C)[C@@H](C)CC)c4)cc3C)cc2)cc1` showed an EC50 ([1]; read-out: EC50) of 3.35 pM and an EC50 ([2]; read-out: EC50) of 14.5 pM.
With `CCOc1ccc(Nc2ccc(/C(=C3C=C/C(=[N+](\CC)Cc4cccc(S(=O)(=O)[O-])c4)C=C/3C)c3ccc(N(CC)Cc4cccc(S(=O)(=O)NCCCCCC(=O)NCCOCCOCCOCCOCCOCCOCCOCCOCCC(=O)NCCCC[C@H](NC(=O)[C@H](C)NC(=O)[C@H](C)NC(=O)[C@H](CCC(N)=O)NC(=O)CNC(=O)[C@H](CCC(=O)O)NC(=O)[C@H](CC(C)C)NC(=O)[C@H](Cc5ccc(O)cc5)NC(=O)[C@H](CO)NC(=O)[C@H](CO)NC(=O)[C@@H](NC(=O)[C@H](CC(=O)O)NC(=O)[C@H](CO)NC(=O)[C@@H](NC(=O)[C@H](Cc5ccccc5)NC(=O)[C@@H](NC(=O)CNC(=O)[C@H](CCC(=O)O)NC(=O)C(C)(C)NC(=O)[C@@H](N)Cc5c[nH]cn5)[C@@H](C)O)[C@@H](C)O)C(C)C)C(=O)N[C@@H](CCC(=O)O)C(=O)N[C@@H](Cc5ccccc5)C(=O)N[C@H](C(=O)N[C@@H](C)C(=O)N[C@@H](Cc5c[nH]c6ccccc56)C(=O)N[C@@H](CC(C)C)C(=O)N[C@H](C(=O)N[C@@H](CCCNC(=N)N)C(=O)NCC(=O)N[C@@H](CCCNC(=N)N)C(=O)NCC(=O)O)C(C)C)[C@@H](C)CC)c4)cc3C)cc2)cc1` the EC50 ([1]; read-out: EC50) was 0.16 pM, the EC50 ([2]; read-out: EC50) was 2.44 pM and the EC50 ([3]; read-out: EC50) was 0.93 pM.
With `CC[C@H](C)[C@H](NC(=O)[C@H](Cc1ccccc1)NC(=O)[C@H](CCC(=O)O)NC(=O)[C@H](CCCCN)NC(=O)[C@H](C)NC(=O)[C@H](C)NC(=O)[C@H](CCC(N)=O)NC(=O)CNC(=O)[C@H](CCC(=O)O)NC(=O)[C@H](CC(C)C)NC(=O)[C@H](Cc1ccc(O)cc1)NC(=O)[C@H](CO)NC(=O)[C@H](CO)NC(=O)[C@@H](NC(=O)[C@H](CC(=O)O)NC(=O)[C@H](CO)NC(=O)[C@@H](NC(=O)[C@H](Cc1ccccc1)NC(=O)[C@@H](NC(=O)CNC(=O)[C@@H](N)CCC(=O)O)[C@@H](C)O)[C@@H](C)O)C(C)C)C(=O)N[C@@H](C)C(=O)N[C@@H](Cc1c[nH]c2ccccc12)C(=O)N[C@@H](CC(C)C)C(=O)N[C@H](C(=O)N[C@@H](CCCNC(=N)N)C(=O)NCC(=O)N[C@@H](CCCNC(=N)N)C(=O)NCC(N)=O)C(C)C` the EC50 ([1]; hek293) was “No_effect”, the EC50 ([2]; hek293) was “No_effect” and the EC50 ([3]; hek293) was “No_effect”.
In the case of `CCOc1ccc(Nc2ccc(/C(=C3C=C/C(=[N+](\CC)Cc4ccc(S(=O)(=O)[O-])cc4)C=C/3C)c3ccc(N(CC)Cc4cccc(S(=O)(=O)NCCCCCC(=O)NCCCC[C@H](NC(=O)[C@H](C)NC(=O)[C@H](C)NC(=O)[C@H](CCC(N)=O)NC(=O)CNC(=O)[C@H](CCC(=O)O)NC(=O)[C@H](CC(C)C)NC(=O)[C@H](Cc5ccc(O)cc5)NC(=O)[C@H](CO)NC(=O)[C@H](CO)NC(=O)[C@@H](NC(=O)[C@H](CC(=O)O)NC(=O)[C@H](CO)NC(=O)[C@@H](NC(=O)[C@H](Cc5ccccc5)NC(=O)[C@@H](NC(=O)CNC(=O)[C@H](CCC(=O)O)NC(=O)C(C)(C)NC(=O)[C@@H](N)Cc5c[nH]cn5)[C@@H](C)O)[C@@H](C)O)C(C)C)C(=O)N[C@@H](CCC(=O)O)C(=O)N[C@@H](Cc5ccccc5)C(=O)N[C@H](C(=O)N[C@@H](C)C(=O)N[C@@H](Cc5c[nH]c6ccccc56)C(=O)N[C@@H](CC(C)C)C(=O)N[C@H](C(=O)N[C@@H](CCCNC(=N)N)C(=O)NCC(=O)N[C@@H](CCCNC(=N)N)C(=O)NCC(=O)O)C(C)C)[C@@H](C)CC)c4)cc3C)cc2)cc1`, the EC50 ([2]; read-out: EC50) is reported as 8.82 pM.
